From ChEMBL document CHEMBL3813665, “New cytotoxic and anti-inflammatory steroids from the soft coral Klyxum flaccidum” (Bioorg Med Chem Lett, 2016)

Columns and labels:
HT-29 = assay: Cytotoxicity against human HT-29 cells by Alamar blue assay; type: functional, cell-based
P388 = assay: Cytotoxicity against mouse P388 cells by Alamar blue assay; type: functional, cell-based
K562 = assay: Cytotoxicity against human K562 cells by Alamar blue assay; type: functional, cell-based
A549 = assay: Cytotoxicity against human A549 cells by Alamar blue assay; type: functional, cell-based
[1] = Cytotoxicity against human DLD1 cells by Alamar blue assay; type: functional, cell-based; details: DLD-1
[2] = Antiinflammatory activity in human neutrophils assessed as inhibition of fMLP/CB-induced superoxide anion generation after 5 mins by ferricytochrome c based spectrophotometric analysis; type: functional, cell-based; details: Neutrophil
[3] = Antiinflammatory activity in human neutrophils assessed as inhibition of fMLP/CB-induced superoxide anion generation at 10 uM after 5 mins by ferricytochrome c based spectrophotometric analysis; type: functional; details: Neutrophil
[4] = Antiinflammatory activity in human neutrophils assessed as inhibition of fMLP/CB-induced elastase release using MeO-Suc-Ala-Ala-Pro-Val-p-nitroanilide as substrate after 5 mins by […] analysis; type: functional, cell-based; details: Neutrophil
[5] = Antiinflammatory activity in human neutrophils assessed as inhibition of fMLP/CB-induced elastase release using MeO-Suc-Ala-Ala-Pro-Val-p-nitroanilide as substrate at 10 uM after 5 mins by […] analysis; type: functional; details: Neutrophil

| SMILES | IC50 (HT-29) [µM] | IC50 (P388) [µM] | IC50 (K562) [µM] | IC50 (A549) [µM] | IC50 [1] [µM] | IC50 [2] [µM] | inhibition at 10 µM [3] [%] | IC50 [4] [µM] | inhibition at 10 µM [5] [%] |
| --- | --- | --- | --- | --- | --- | --- | --- | --- | --- |
| CC(C)[C@@H](C)[C@@]1(C)C[C@@H]1[C@@H](C)[C@H]1CC[C@H]2[C@H]3[C@H]([C@H](O)C[C@]12C)[C@@]1(C)CC[C@H](O)CC1=C[C@@H]3O | > 40 | > 40 | > 40 | > 40 | > 40 | > 10 | 11.1 | > 10 | 21.8 |
| CC(C)[C@@H](C)[C@@]1(C)C[C@@H]1[C@@H](C)[C@H]1CC[C@H]2[C@@H]3[C@@H](O)C=C4C[C@@H](O)CC[C@]4(C)[C@@]3(O)[C@H](O)C[C@]12C | > 40 | > 40 | > 40 | > 40 | > 40 | > 10 | -5.97 | > 10 | 16.4 |
| CC(C)[C@@H](C)[C@H](C)C[C@@](C)(O)C1=CC[C@H]2[C@@H]3CC=C4C[C@@H](O)CC[C@]4(C)[C@H]3[C@H](O)C[C@]12C | 15.1 | 14.8 | 12.7 | > 40 | > 40 | 5.64 | 76.3 | 4.4 | 114 |
| CC(C)[C@@H](C)[C@@]1(C)C[C@@H]1[C@@H](C)[C@H]1CC[C@H]2[C@H]3[C@H]([C@H](O)[C@H](O)[C@]12C)[C@@]1(C)CC[C@H](O)CC1=C[C@@H]3O | > 40 | 15.5 | > 40 | > 40 | > 40 | – | – | – | – |
| COc1cccc2c1C(=O)c1c(O)c3c(c(O)c1C2=O)C[C@@](O)(C(=O)CO)C[C@@H]3O[C@H]1C[C@H](N)[C@H](O)[C@H](C)O1 [DOXORUBICIN] | 0.87 | 0.9 | 0.94 | 0.55 | 2.78 | – | – | – | – |
| O=c1cc(N2CCOCC2)oc2c(-c3ccccc3)cccc12 [LY-294002] | – | – | – | – | – | 3.65 | – | 5.15 | – |
